Results from patent US20240384350A1, “METHODS OF TREATING CANCER WITH KINASE INHIBITORS” (BOARD OF REGENTS, THE UNIVERSITY OF TEXAS SYSTEM, priority 2021, published 2024).

Legend:
Assay in all cases: Ba/F3 drug screening, Cell Titer Glo, IC50 Mut/WT
Assay type in all cases: cell-based
EGFR L858R T790M L718V = target: T1, EGFR L858R T790M L718V (Homo sapiens, UniProt P00533, L718V/L858R/T790M); details: T790M-like-3R, 72 hours
T1 construct: expressed in transfected cells; host or cells: Ba/F3
Method: (§1) Data represent the ratio of the IC50 value for a given TKI for cells with a T790M-like-3R EGFR mutation to the IC50 value for cells with wildtype EGFR.
(§2) Ba/F3 cell generation, drug screening, and IC50 approximations. Ba/F3 cells were obtained as a gift from Dr. Gordon Mills (MD Anderson Cancer Center), and maintained in RPMI (Sigma) containing 10% FBS, 1% penicillin/streptomycin, and 10 ng/ml recombinant mIL-3 (R&D Biosystems). To establish stable Ba/F3 cell lines, Ba/F3 cells were transduced with retroviruses containing mutant EGFR plasmids for 12-24 hours.
(§3) After 48-72 hours of transduction, 2 μg/ml puromycin (Invitrogen) was added to Ba/F3 cell lines in complete RPMI. To select for EGFR positive cell lines, cells were stained with PE-EGFR (Biolegend) and sorted by FACS. After sorting, EGFR positive cells were maintained in RPMI containing 10% FBS, 1% penicillin/streptomycin, and 1 ng/ml EGF to support cell viability. […] Shortly, cells were plated in 384-well plates (Greiner Bio-One) at 2000-3000 cells per well in technical triplicate. Seven different concentrations of TKIs or DMSO vehicle were added to reach a final volume of 40 μL per well. After 72 hours, 11 μL of Cell Titer Glo (Promega) was added to each well. Plates were incubated for a minimum of 10 minutes, and bioluminescence was determined using a FLUOstar OPTIMA plate reader (BMG LABTECH). Raw bioluminescence values were normalized to DMSO control treated cells, and values were plotted in GraphPad Prism. […] Drug screens were performed in technical triplicate on each plate and either duplicate or triplicate biological replicates. […] Statistical differences between groups were determined by ANOVA as described in the figure legends.

EGFR G719A L861Q = target: T2, EGFR G719A L861Q (Homo sapiens, UniProt P00533, G719A/L861Q); details: PACC; G719A L861Q; Ba/F3; 72 hours
T2 construct: expressed in transfected cells; host or cells: Ba/F3

EGFR T790M = target: T3, EGFR T790M (Homo sapiens, UniProt P00533, T790M); details: T790M-like-3S, 72 hours
T3 construct: expressed in transfected cells; host or cells: Ba/F3
Method: (§4) Data represent the ratio of the IC50 value for a given TKI for cells with a T790M-like-3S EGFR mutation to the IC50 value for cells with wildtype EGFR.
as §2
(§5) After 48-72 hours of transduction, 2 μg/ml puromycin (Invitrogen) was added to Ba/F3 cell lines in complete RPMI. To select for EGFR positive cell lines, cells were stained with PE-EGFR (Biolegend) and sorted by FACS. After sorting, EGFR positive cells were maintained in RPMI containing 10% FBS, 1% penicillin/streptomycin, and 1 ng/ml EGF to support cell viability. Drug screening was performed as previously described^41,42. Shortly, cells were plated in 384-well plates (Greiner Bio-One) at 2000-3000 cells per well in technical triplicate. Seven different concentrations of TKIs or DMSO vehicle were added to reach a final volume of 40 μL per well. After 72 hours, 11 μL of Cell Titer Glo (Promega) was added to each well. Plates were incubated for a minimum of 10 minutes, and bioluminescence was determined using a FLUOstar OPTIMA plate reader (BMG LABTECH). Raw bioluminescence values were normalized to DMSO control treated cells, and values were plotted in GraphPad Prism. […] Drug screens were performed in technical triplicate on each plate and either duplicate or triplicate biological replicates.

EGFR Ex19del/T790M/G724S = target: T4, EGFR Ex19del/T790M/G724S (Homo sapiens, UniProt P00533, DEL746-750/G724S/T790M); details: T790M-like-3S, 72 hours
T4 construct: expressed in transfected cells; host or cells: Ba/F3

EGFR L858R L718Q = target: T5, EGFR L858R L718Q (Homo sapiens, UniProt P00533, L718Q/L858R); details: PACC; L858R L718Q; Ba/F3; 72 hours
T5 construct: host or cells: Ba/F3

EGFR L861R = target: T6, EGFR L861R (Homo sapiens, UniProt P00533, L861R); details: Classical-Like, 72 hours
T6 construct: expressed in transfected cells; host or cells: Ba/F3 cells, retroviral pBabe-Puro vector (vector made by GeneScript from EGFR WT)

EGFR L833V = target: T7, EGFR L833V (Homo sapiens, UniProt P00533, L833V); details: Classical-Like, 72 hours
T7 construct: expressed in transfected cells; host or cells: Ba/F3 cells, retroviral pBabe-Puro vector

EGFR L858R T790M L792H = target: T8, EGFR L858R T790M L792H (Homo sapiens, UniProt P00533, L792H/L858R/T790M); details: T790M-like-3S, 72 hours
T8 construct: expressed in transfected cells; host or cells: Ba/F3
Method: as §4, §2, §5

EGFR Ex19del L718Q = target: T9, EGFR Ex19del L718Q (Homo sapiens, UniProt P00533, DEL746-750/L718Q); details: PACC; Ex19del L718Q; Ba/F3; 72 hours
T9 construct: expressed in transfected cells; host or cells: Ba/F3
Method: (§6) Data represent the ratio of the IC50 value for a given TKI for cells with a PACC EGFR mutation to the IC50 value for cells with wildtype EGFR.
as §2, §5

EGFR A767insASV = target: T10, EGFR A767insASV (Homo sapiens, UniProt P00533, DUP767-769); details: Ex20, 72 hours
T10 construct: expressed in transfected cells; host or cells: Ba/F3 cells, retroviral pBabe-Puro vector
Method: Data represent the ratio of the IC50 value for a given TKI for cells with an ex20ins EGFR mutation to the IC50 value for cells with wildtype EGFR.
as §2
After 48-72 hours of transduction, 2 μg/ml puromycin (Invitrogen) was added to Ba/F3 cell lines in complete RPMI. To select for EGFR positive cell lines, cells were stained with PE-EGFR (Biolegend) and sorted by FACS. After sorting, EGFR positive cells were maintained in RPMI containing 10% FBS, 1% penicillin/streptomycin, and 1 ng/ml EGF to support cell viability. Drug screening was performed as previously described^41,42. Shortly, cells were plated in 384-well plates (Greiner Bio-One) at 2000-3000 cells per well in technical triplicate. Seven different concentrations of TKIs or DMSO vehicle were added to reach a final volume of 40 μL per well. After 72 hours, 11 μL of Cell Titer Glo (Promega) was added to each well. Plates were incubated for a minimum of 10 minutes, and bioluminescence was determined using a FLUOstar OPTIMA plate reader (BMG LABTECH). Raw bioluminescence values were normalized to DMSO control treated cells, and values were plotted in GraphPad Prism. […] Drug screens were performed in technical triplicate on each plate and either duplicate or triplicate biological replicates. […] Statistical differences between groups were determined by ANOVA as described in the figure legends.

EGFR L718V = target: T11, EGFR L718V (Homo sapiens, UniProt P00533, L718V); details: PACC; L718V; Ba/F3; 72 hours
T11 construct: expressed in transfected cells; host or cells: Ba/F3
Method: as §6, §2, §5

EGFR L858R/T790M = target: T12, EGFR L858R/T790M (Homo sapiens, UniProt P00533, L858R/T790M); details: T790M-like-3S, 72 hours
T12 construct: expressed in transfected cells; host or cells: Ba/F3
Method: as §4, §2, §5

EGFR Ex19del/C797S = target: T13, EGFR Ex19del/C797S (Homo sapiens, UniProt P00533, C797S/DEL746-750); details: PACC; Ex19del/C797S; Ba/F3; 72 hours
T13 construct: expressed in transfected cells; host or cells: Ba/F3
Method: as §6, §2, §5

EGFR E709K G719S = target: T14, EGFR E709K G719S (Homo sapiens, UniProt P00533, E709K/G719S); details: PACC; E709K G719S; Ba/F3; 72 hours
T14 construct: expressed in transfected cells; host or cells: Ba/F3

EGFR A763insFQEA = target: T15, EGFR A763insFQEA (Homo sapiens, UniProt P00533, INS763FQEA); details: Classical-Like, 72 hours
T15 construct: expressed in transfected cells; host or cells: Ba/F3 cells, retroviral pBabe-Puro vector

EGFR L718Q = target: T16, EGFR L718Q (Homo sapiens, UniProt P00533, L718Q); details: PACC; L718Q; Ba/F3; 72 hours
T16 construct: expressed in transfected cells; host or cells: Ba/F3

EGFR S768I/T790M = target: T17, EGFR S768I/T790M (Homo sapiens, UniProt P00533, S768I/T790M); details: T790M-like-3S, 72 hours
T17 construct: expressed in transfected cells; host or cells: Ba/F3
Method: as §4, §2, §5

[1] = target: T18, EGFR L747_K754del insATSPE (Homo sapiens, UniProt P00533, DEL747-749/K754E); details: T790M-like-3S, 72 hours
T18 construct: expressed in transfected cells; host or cells: Ba/F3 cells, retroviral pBabe-Puro vector
Method: as §4, §2, §5

EGFR R776C = target: T19, EGFR R776C (Homo sapiens, UniProt P00533, R776C); details: PACC; R776C; Ba/F3; 72 hours
T19 construct: host or cells: Ba/F3

EGFR L858R G724S = target: T20, EGFR L858R G724S (Homo sapiens, UniProt P00533, G724S/L858R); details: PACC; L858R G724S; Ba/F3; 72 hours
T20 construct: expressed in transfected cells; host or cells: Ba/F3 (retroviral transduction, pBabe-Puro based vectors)

EGFR S811F = target: T21, EGFR S811F (Homo sapiens, UniProt P00533, S811F); details: Classical-Like, 72 hours
T21 construct: expressed in transfected cells; host or cells: Ba/F3 cells, retroviral pBabe-Puro vector (vector made by GeneScript from EGFR WT)
Method: (§7) Data represent the ratio of the IC50 value for a given TKI for cells with a classical-like EGFR mutation to the IC50 value for cells with wildtype EGFR.
as §2
(§8) After 48-72 hours of transduction, 2 μg/ml puromycin (Invitrogen) was added to Ba/F3 cell lines in complete RPMI. To select for EGFR positive cell lines, cells were stained with PE-EGFR (Biolegend) and sorted by FACS. After sorting, EGFR positive cells were maintained in RPMI containing 10% FBS, 1% penicillin/streptomycin, and 1 ng/ml EGF to support cell viability. […] Shortly, cells were plated in 384-well plates (Greiner Bio-One) at 2000-3000 cells per well in technical triplicate. Seven different concentrations of TKIs or DMSO vehicle were added to reach a final volume of 40 μL per well. After 72 hours, 11 μL of Cell Titer Glo (Promega) was added to each well. Plates were incubated for a minimum of 10 minutes, and bioluminescence was determined using a FLUOstar OPTIMA plate reader (BMG LABTECH). Raw bioluminescence values were normalized to DMSO control treated cells, and values were plotted in GraphPad Prism. […] Drug screens were performed in technical triplicate on each plate and either duplicate or triplicate biological replicates.

EGFR A763insLQEA = target: T22, EGFR A763insLQEA (Homo sapiens, UniProt P00533, INS763LQEA); details: Classical-Like, 72 hours
T22 construct: expressed in transfected cells; host or cells: Ba/F3 cells, retroviral pBabe-Puro vector
Method: as §7, §2, §8

EGFR N771dupN = target: T23, EGFR N771dupN (Homo sapiens, UniProt P00533, DUP771-771); details: Ex20, 72 hours
T23 construct: expressed in transfected cells; host or cells: Ba/F3 cells, retroviral pBabe-Puro vector

EGFR E709_T710del insD = target: T24, EGFR E709_T710del insD (Homo sapiens, UniProt P00533, DEL709-709/T710D); details: PACC; E709_T710del insD; Ba/F3; 72 hours
T24 construct: expressed in transfected cells; host or cells: Ba/F3

EGFR G724S T790M = target: T25, EGFR G724S T790M (Homo sapiens, UniProt P00533, G724S/T790M); details: T790M-like-3R, 72 hours
T25 construct: expressed in transfected cells; host or cells: Ba/F3

EGFR L858R/T790M/L718Q = target: T26, EGFR L858R/T790M/L718Q (Homo sapiens, UniProt P00533, L718Q/L858R/T790M); details: T790M-like-3R, 72 hours
T26 construct: expressed in transfected cells; host or cells: Ba/F3
Method: as §1, §2, §3

EGFR G719A = target: T27, EGFR G719A (Homo sapiens, UniProt P00533, G719A); details: PACC; G719A; Ba/F3; 72 hours
T27 construct: expressed in transfected cells; host or cells: Ba/F3
Method: as §6, §2, §5

Row | Structure (SMILES) | ratio of IC50 for cells with mutant EGFR to IC50 for cells with wildtype EGFR (Mut/WT) (EGFR L858R T790M L718V) | ratio of IC50 for cells with mutant EGFR to IC50 for cells with wildtype EGFR (Mut/WT) (EGFR G719A L861Q) | ratio of IC50 for cells with mutant EGFR to IC50 for cells with wildtype EGFR (Mut/WT) (EGFR T790M) | ratio of IC50 for cells with mutant EGFR to IC50 for cells with wildtype EGFR (Mut/WT) (EGFR Ex19del/T790M/G724S) | ratio of IC50 for cells with mutant EGFR to IC50 for cells with wildtype EGFR (Mut/WT) (EGFR L858R L718Q) | ratio of IC50 for cells with mutant EGFR to IC50 for cells with wildtype EGFR (Mut/WT) (EGFR L861R) | ratio of IC50 for cells with mutant EGFR to IC50 for cells with wildtype EGFR (Mut/WT) (EGFR L833V) | ratio of IC50 for cells with mutant EGFR to IC50 for cells with wildtype EGFR (Mut/WT) (EGFR L858R T790M L792H) | ratio of IC50 for cells with mutant EGFR to IC50 for cells with wildtype EGFR (Mut/WT) (EGFR Ex19del L718Q) | ratio of IC50 for cells with mutant EGFR to IC50 for cells with wildtype EGFR (Mut/WT) (EGFR A767insASV) | ratio of IC50 for cells with mutant EGFR to IC50 for cells with wildtype EGFR (Mut/WT) (EGFR L718V) | ratio of IC50 for cells with mutant EGFR to IC50 for cells with wildtype EGFR (Mut/WT) (EGFR L858R/T790M) | ratio of IC50 for cells with mutant EGFR to IC50 for cells with wildtype EGFR (Mut/WT) (EGFR Ex19del/C797S) | ratio of IC50 for cells with mutant EGFR to IC50 for cells with wildtype EGFR (Mut/WT) (EGFR E709K G719S) | ratio of IC50 for cells with mutant EGFR to IC50 for cells with wildtype EGFR (Mut/WT) (EGFR A763insFQEA) | ratio of IC50 for cells with mutant EGFR to IC50 for cells with wildtype EGFR (Mut/WT) (EGFR L718Q) | ratio of IC50 for cells with mutant EGFR to IC50 for cells with wildtype EGFR (Mut/WT) (EGFR S768I/T790M) | ratio of IC50 for cells with mutant EGFR to IC50 for cells with wildtype EGFR (Mut/WT) [1] | ratio of IC50 for cells with mutant EGFR to IC50 for cells with wildtype EGFR (Mut/WT) (EGFR R776C) | ratio of IC50 for cells with mutant EGFR to IC50 for cells with wildtype EGFR (Mut/WT) (EGFR L858R G724S) | further results
1 | COc1cc2ncnc(Nc3cccc(Cl)c3F)c2cc1OC(=O)N1CCN(C)C[C@H]1C [AZD3759] | 4.812 | 0.07458 | 21.82 | 4.645 | 0.3765 | 0.03704 | 0.1488 | 9.625 | 4.812 | 4.154 | 0.6898 | 6.744 | 0.0001375 | 0.3636 | 0.02225 | 1.696 | 7.218 | 4.604 | 0.1522 | 0.0005419 | ratio of IC50 for cells with mutant EGFR to IC50 for cells with wildtype EGFR (Mut/WT) (EGFR S811F): 0.006423; ratio of IC50 for cells with mutant EGFR to IC50 for cells with wildtype EGFR (Mut/WT) (EGFR A763insLQEA): 0.02905; ratio of IC50 for cells with mutant EGFR to IC50 for cells with wildtype EGFR (Mut/WT) (EGFR N771dupN): 1.567; ratio of IC50 for cells with mutant EGFR to IC50 for cells with wildtype EGFR (Mut/WT) (EGFR E709_T710del insD): 0.2123; ratio of IC50 for cells with mutant EGFR to IC50 for cells with wildtype EGFR (Mut/WT) (EGFR G724S T790M): 7.7; ratio of IC50 for cells with mutant EGFR to IC50 for cells with wildtype EGFR (Mut/WT) (EGFR L858R/T790M/L718Q): 4.812; ratio of IC50 for cells with mutant EGFR to IC50 for cells with wildtype EGFR (Mut/WT) (EGFR G719A): 0.1002
2 | COc1cc2ncnc(Nc3ccc(F)c(Cl)c3)c2cc1NC(=O)/C=C/CN1CCCCC1 [Dacomitinib] | 20.65 | 0.002249 | 6.061 | 9.95 | 0.051 | 0.001653 | 0.06272 | 8.291 | 0.03226 | 3.057 | 0.1103 | 10 | 0.01762 | 0.001358 | 0.0379 | 0.3828 | 1.282 | 5.465 | 0.1215 | 0.0005712 | ratio of IC50 for cells with mutant EGFR to IC50 for cells with wildtype EGFR (Mut/WT) (EGFR S811F): 0.1673; ratio of IC50 for cells with mutant EGFR to IC50 for cells with wildtype EGFR (Mut/WT) (EGFR A763insLQEA): 0.001484; ratio of IC50 for cells with mutant EGFR to IC50 for cells with wildtype EGFR (Mut/WT) (EGFR N771dupN): 6.261; ratio of IC50 for cells with mutant EGFR to IC50 for cells with wildtype EGFR (Mut/WT) (EGFR E709_T710del insD): 0.08391; ratio of IC50 for cells with mutant EGFR to IC50 for cells with wildtype EGFR (Mut/WT) (EGFR G724S T790M): 12.05; ratio of IC50 for cells with mutant EGFR to IC50 for cells with wildtype EGFR (Mut/WT) (EGFR L858R/T790M/L718Q): 45.78; ratio of IC50 for cells with mutant EGFR to IC50 for cells with wildtype EGFR (Mut/WT) (EGFR G719A): 0.001888
